A short description of data set [1]: Insulin tolerance test (3 U/kg s.c.) in insulin resistant Zucker Fatty rats after 3 weeks pretreatment. The data set is classed as in vivo. Details: unit not given here. As for the experimental part:
Measurement of Insulin Sensitivity in Conscious Rats.
Insulin resistant Zucker Fatty rats or Zucker Diabetic Fatty (ZDF) rats were treated for up to 3 weeks with the test compound orally once daily. Plasma parameters were obtained by retroorbital bleeding during inhalation anaesthesia on respective study days. […] In the case of improvement of insulin sensitivity by the test compound the blood glucose reduction was much more pronounced and prolonged compared to that of the control group.

The next data set deals with rat adipocytes. As to the kind of experiment: In vitro lipolysis assay (antilipolytic activity in rat adipocytes). The data set is classed as cell-based. The settings on record: Rattus norvegicus, Adipocyte, 1 h; norepinephrine-stimulated lipolysis, glycerol assayed, 60 min; read-out: Lipo ec50. As for the experimental part: Determination of Antilipolytic Activity in Rat Adipocytes
Isolation of Adipocytes from Epididymal Fat Pads
Adipose tissue is removed from anesthetized rats and rinsed twice in incubation medium (2.09 g sodium bicarbonate and 0.04 g EDTA, disodium salt, in 1 L Krebs buffer). Each rat (300-350 g) yields approximately 4 mL of adipose tissue. The adipose tissue (35 mL) is cut into small pieces with scissors and washed with incubation medium (50 mL). The mixture is poured into the barrel of a 50 mL syringe to which is attached a short piece of clamped tubing instead of a needle. The aqueous phase is allowed to drain. A second wash with incubation medium is passed through the syringe. The tissue is added to 50 mL of collagenase solution (collagenase (90 mg), bovine serum albumin (BSA) (500 mg), and 0.1 M calcium chloride solution (1 mL), in incubation medium (50 mL)) in a 1 L bottle. The mixture is shaken in an environmental at 37° C. for about 60 minutes under an atmosphere of 95% oxygen/5% carbon dioxide to effect digestion of the tissue. The dispersed cells are poured through 2 layers of cheese cloth into a 100 mL plastic beaker. The undigested clumps in the cloth are rinsed once with incubation medium (20 mL). The cells in the beaker are centrifuged in 2 plastic tubes for 30 seconds at room temperature at 300 rpm. The aqueous phase is aspirated from beneath the loosely packed layer of floating fat cells and discarded. The adipocytes are gently poured into a 250 mL plastic beaker containing 100 mL of rinse solution (1 g BSA per 100 mL incubation medium). After gentle stirring the centrifugation step is repeated. Another wash with rinse solution follows. The cells are pooled and their volume is estimated with a graduated cylinder. The adipocytes are diluted in twice their volume of assay buffer (incubation medium (120 mL), BSA (1.2 g), pyruvic acid (13 mg)).
The assay is performed in 20 mL plastic scintillation vials and the total assay volume is 4.2 mL. Assay buffer (2.5 mL), diluted adipocytes (1.5 mL), and a solution of the compound to be tested (12.3 μL) adenosine agonist (12.3 μl; varying concentration) is incubated in the environmental shaker for 15 minutes, then the reaction is started with norepinephrine solution (41.2 μL) (10 nM, in a carrier solution containing water (100 mL), BSA (4 mg), and 0.1 M EDTA (20 μL))and adenosine deaminase (1 μg/mL, 41.2 μl). After sixty minutes in the shaker the reaction is terminated by putting the vials on ice. […] The hard lipid layer is removed by aspiration and the aqueous layer is assayed for glycerol (400 μl of sample). The positive control is done in the absence of any adenosine agonist, substituting water in place of the solution to be tested.

Data set [2] in a line: Plasma free fatty acids in anaesthetized starved male Wistar rats. Type of data set: in vivo. The arrangement: unit not given here. The method, then: Measurement of Plasma Lipdis (Free Fatty Acids, Triglycerides, Cholesterol) in Anaesthetized Rats.
Plasma lipid levels were assayed in anaesthetized rats. Briefly, rats were anaesthetized with an intraperitoneal injection of pentobarbital sodium (60 mg/kg), tracheotomized, and one jugular vein per rat was cannulated for intravenous administration (bolus injection or infusion). Anesthesia was mantained for up to 7 hours by subcutaneous infusion of pentobarbital sodium (adjusted to the anesthetic depth of the individual animal; about 24 mg/kg/h). Body temperature was monitored with a rectal probe thermometer, and temperature was maintained at 37° C. by means of a heated surgical plate. The rats were allowed to stabilize their blood levels after surgery for up to 2 hours, after which the test compound was injected intraperitoneally. Blood samples for glucose analysis (10 μl) were obtained from the tip of the tail every 15 minutes. For analysis of plasma lipids blood samples (0.3 ml) were obtained from the jugular vein either every 10 to 15 minutes for up to 2 hours, or every hour for up to 5 hours after compound administration. Standard enzymatic procedures were used to determine blood glucose (Bergmeyer, 1974).

For orientation: EC50 means the concentration at which the effect is half-maximal. By melting point is commonly meant the temperature, or range, at which the solid turns liquid.

Turning to `COC[C@H]1C[C@@H](n2cnc3c(N[C@H]4CCN(c5ccc(C(F)(F)F)cn5)C4)ncnc32)[C@H](O)[C@@H]1O` [Example 3, (1R,2S,3R,5R)-5-methoxymethyl-3-[6-[1-(5-trifluoromethylpyridin2-yl)pyrrolidin-3(S)-ylamino]-purin-9-yl]cyclopentane-1,2-diol], the melting point lay in the range of 166 to 168 °C. For the same molecule, the “Insulin tolerance test, blood glucose, mean” value (shortened to “Insulin tolerance test”) in data set [1] (1 mg/kg p.o. for 3 weeks (first group), 0 minutes after insulin) came out at 4.60. The “Insulin tolerance test” value in data set [1] (1 mg/kg p.o. for 3 weeks (first group), 60 minutes after insulin) is listed as 1.96. In addition, the “Insulin tolerance test” value in data set [1] (1 mg/kg p.o. for 3 weeks (first group), 120 minutes after insulin) is 1.59. Further, the “Insulin tolerance test” value in data set [1] (1 mg/kg p.o. for 3 weeks (first group), 180 minutes after insulin) is 1.72. Moreover, the “Insulin tolerance test” value in data set [1] (1 mg/kg p.o. for 3 weeks (first group), 240 minutes after insulin) is 3.02. Also, the “Insulin tolerance test” value in data set [1] (1 mg/kg p.o. for 3 weeks (first group), 300 minutes after insulin) is 5.13. In data set [1] (1 mg/kg p.o. for 3 weeks (first group), 360 minutes after insulin), the “Insulin tolerance test” value was 4.98. In data set [1] (1 mg/kg p.o. for 3 weeks (first group), 420 minutes after insulin), the “Insulin tolerance test” value is given as 4.04. In addition, in data set [1] (second group, (1 mg/kg p.o.), 3 weeks, 0 minutes after insulin), the “Insulin tolerance test” value was 5.17. Further, in data set [1] (second group, (1 mg/kg p.o.), 3 weeks, 60 minutes after insulin), the “Insulin tolerance test” value was found to be 1.99. In addition, the “Insulin tolerance test” value in data set [1] (second group, (1 mg/kg p.o.), 3 weeks, 120 minutes after insulin) was found to be 1.57. For the same molecule, in data set [1] (second group, (1 mg/kg p.o.), 3 weeks, 180 minutes after insulin), the “Insulin tolerance test” value is 1.44. The “Insulin tolerance test” value in data set [1] (second group, (1 mg/kg p.o.), 3 weeks, 240 minutes after insulin) is recorded as 2.54. Moreover, in data set [1] (second group, (1 mg/kg p.o.), 3 weeks, 300 minutes after insulin), the “Insulin tolerance test” value is recorded as 4.35. Also, in data set [1] (second group, (1 mg/kg p.o.), 3 weeks, 360 minutes after insulin), the “Insulin tolerance test” value worked out at 5.63. The “Insulin tolerance test” value in data set [1] (second group, (1 mg/kg p.o.), 3 weeks, 420 minutes after insulin) is recorded as 6.09. Also, in the data set with rat adipocytes, the EC50 was found to be 5.62 nM. Moreover, the “plasma free fatty acids, mean” value in data set [2] (10 mg/kg i.p., 10 minutes) was found to be 0.42. Also, in data set [2] (10 mg/kg i.p., 20 minutes), the “plasma free fatty acids, mean” value amounted to 0.26. In addition, the “plasma free fatty acids, mean” value in data set [2] (10 mg/kg i.p., 30 minutes) is 0.19. For the same molecule, in data set [2] (10 mg/kg i.p., 40 minutes), the “plasma free fatty acids, mean” value turned out to be 0.19. Also, the “plasma free fatty acids, mean” value in data set [2] (10 mg/kg i.p., 60 minutes) is 0.13. Moreover, the “plasma free fatty acids, mean” value in data set [2] (10 mg/kg i.p., −60 minutes) is listed as 0.61. In addition, the “plasma free fatty acids, mean” value in data set [2] (30 mg/kg i.p., 10 minutes) was found to be 0.24. For the same molecule, in data set [2] (30 mg/kg i.p., 20 minutes), the “plasma free fatty acids, mean” value turned out to be 0.14. Moreover, in data set [2] (30 mg/kg i.p., 30 minutes), the “plasma free fatty acids, mean” value stood at 0.13. Further, the “plasma free fatty acids, mean” value in data set [2] (30 mg/kg i.p., 40 minutes) is 0.10. Further, in data set [2] (30 mg/kg i.p., 60 minutes), the “plasma free fatty acids, mean” value came out at 0.09. Also, in data set [2] (30 mg/kg i.p., −60 minutes), the “plasma free fatty acids, mean” value came out at 0.52.
`N#Cc1ccc(N2CC[C@H](Nc3ncnc4c3ncn4[C@@H]3C[C@H](CO)[C@@H](O)[C@H]3O)C2)cc1` [Example 40, 4-[3(S)-[9-((1R,2S,3R,5R)-1,2-dihydroxy-5-hydroxymethylcyclopent-3-yl)-9H-purin-6-ylamino]pyrrolidin-1-yl]benzonitrile] yielded a melting point of 140 °C. In addition, in the data set with rat adipocytes, the EC50 stood at 10.5 nM.
The like results for `OC[C@H]1C[C@@H](n2cnc3c(N[C@H]4CCN(c5nccc6ccccc56)C4)ncnc32)[C@H](O)[C@@H]1O` [Example 41, (1R,2S,3R,5R)-5-hydroxymethyl-3-[6-[1-(isoquinolin-1-yl)pyrrolidin-3(S)-ylamino]-purin-9-yl]cyclopentane-1,2-diol] were, in that order, 119 to 122 °C and 182 nM.
`COC[C@H]1C[C@@H](n2cnc3c(N[C@H]4CCN(c5ncc(C(F)(F)F)cc5Cl)C4)ncnc32)[C@H](O)[C@@H]1O` [Example 44, (1R,2S,3R,5R)-3-[6-[1-(3-chloro-5-trifluoromethylpyridin-2-yl)pyrrolidin-3(S)-ylamino]-purin-9-yl]-5-methoxymethylcyclopentane-1,2-diol] came in with a melting point of 140 to 143 °C. The EC50 in the data set on rat adipocytes came to 226 nM.
For `COC[C@H]1C[C@@H](n2cnc3c(N[C@H]4CCN(c5ccc(Cl)nn5)C4)ncnc32)[C@H](O)[C@@H]1O` [Example 51, (1R,2S,3R,5R)-3-[6-[1-(6-chloropyridazin-3-yl)pyrrolidin-3(S)-ylamino]-purin-9-yl]-5-methoxymethylcyclopentane-1,2-diol] the same measures were 122 to 124 °C and 18.6 nM.
For `COC[C@H]1C[C@@H](n2cnc3c(N[C@H]4CCN(c5ccc(Br)cn5)C4)ncnc32)[C@H](O)[C@@H]1O` [Example 52, (1R,2S,3R,5R)-3-[6-[1-(5-bromopyridin-2-yl)pyrrolidin-3(S)-ylamino]-purin-9-yl]-5-methoxymethylcyclopentane-1,2-diol] the same measures were 110 to 111 °C and 17 nM.
The like results for `COC[C@H]1C[C@@H](n2cnc3c(N[C@H]4CCN(c5ccc(C(F)(F)F)cc5)C4)ncnc32)[C@H](O)[C@@H]1O` [Example 54, (1R,2S,3R,5R)-5-methoxymethyl-3-[6-[1-(4-trifluoromethylphenyl)pyrrolidin-3(S)-ylamino]-purin-9-yl]cyclopentane-1,2-diol] were, in that order, 128 °C and 27.8 nM.
`COC[C@H]1C[C@@H](n2cnc3c(N[C@H]4CCN(c5ccc(Cl)cc5)C4)ncnc32)[C@H](O)[C@@H]1O` [Example 55, (1R,2S,3R,5R)-3-[6-[1-(4-chlorophenyl)-pyrrolidin-3(S)-ylamino]-purin-9-yl]-5-methoxymethylcyclopentane-1,2-diol] registered a melting point of 122 to 125 °C. In addition, in the data set with rat adipocytes, the EC50 turned out to be 3.3 nM.
In turn, `COC[C@H]1C[C@@H](n2cnc3c(N[C@H]4CCN(c5cccc(Cl)c5)C4)ncnc32)[C@H](O)[C@@H]1O` [Example 56, (1R,2S,3R,5R)-3-[6-[1-(3-chlorophenyl)-pyrrolidin-3(S)-ylamino]-purin-9-yl]-5-methoxymethylcyclopentane-1,2-diol] had a melting point of 127 to 130 °C. In addition, the EC50 with rat adipocytes worked out at 2.4 nM.
For `OC[C@H]1C[C@@H](n2cnc3c(N[C@H]4CCN(c5cccc(Cl)c5)C4)ncnc32)[C@H](O)[C@@H]1O` [Example 57, (1R,2S,3R,5R)-3-[6-[1-(3-chlorophenyl)-pyrrolidin-3(S)-ylamino]-purin-9-yl]-5-hydroxymethylcyclopentane-1,2-diol] the same measures were 131 to 133 °C and 63.5 nM.
For `CC[C@H](C)NC(=O)[C@H]1C[C@@H](n2cnc3c(N[C@H]4CCN(c5ccc(C(F)(F)F)cn5)C4)ncnc32)[C@H](O)[C@@H]1O` [Example 61, (1S,2R,3S,4R)-2,3-dihydroxy-4-{6-[1-(5-trifluoromethyl-pyridin-2-yl)-pyrrolidin-3(S)-ylamino]-purin-9-yl}-cyclopentanecarboxylic acid-1(S)-methylpropylamide] the same measures were 215 °C (dec.) and 18 nM.

These data come from patent US20030176390A1, “Methods of treating insulin resistance syndrome and diabetes” (priority 2001, published 2003).
